This note sets out measurements from US20190060298A1, “NEW DRUG FOR THE TREATMENT AND/OR PREVENTION OF DEPRESSIVE DISORDERS” (SORBONNE UNIVERSITE, priority 2013, published 2019).

Holding throughout (format): in vivo, Sprague-Dawley rats
The subject of assay [1] is oxidative stress. The experiment in a line: Oxidative stress state in hippocampus after chronic social defeat. The note with it: vulnerable (V) rats; 288 μmol/kg/day via osmotic mini-pump for 15 days from D11; measured D31. The method, then: The social-defeat procedure (CSD) (D-3 to DO) was performed as previously described (see Becker et al., 2001; Blugeot et al., 2011).
Briefly, this procedure involved subjecting the same pairs of residents and intruders to four daily conditioning sessions. The 45-min conditioning sessions were divided into two consecutive periods. During period I (30 min), intruders were placed individually in a protective cage within the resident animal's home cage. The protective cage allowed unrestricted visual, auditory, and olfactory contact with the resident but prevented close physical contact. […]
The animals were decapitated and the left hippocampus was homogenized in ice-cold buffer (20 mM Hepes pH 7.2, 1 mM EGTA, 210 mM mannitol, 70 mM sucrose). […] Catalase and total SOD activities were immediately determined with commercially available kits (Cayman Chemical, Ann Arbor, Mich., USA), in accordance with the manufacturer's instructions. SOD and catalase specific activities are expressed as units per mg of hippocampus and as nmoles of formaldehyde formed per minute per mg of hippocampal tissue, respectively. […]
For the TBARS assay, protease inhibitors (50 μl/ml), DOC (1%), SDS (0.1%) and Triton® X-100 (0.5%) were added immediately in ice-cold buffer. […] TBARS concentration was calculated from an MDA standard curve and normalized. […]

Assay [2] concerns catalase. The assay can be described thus: Catalase activity in hippocampus. The note with it: 288 μmol/kg/day, 15 days from D11; D31. The method, then:
The animals were decapitated and the left hippocampus was homogenized in ice-cold buffer (20 mM Hepes pH 7.2, 1 mM EGTA, 210 mM mannitol, 70 mM sucrose). Homogenates were centrifuged and the supernatants were retained for analysis. Catalase and total SOD activities were immediately determined with commercially available kits (Cayman Chemical, Ann Arbor, Mich., USA), in accordance with the manufacturer's instructions. SOD and catalase specific activities are expressed as units per mg of hippocampus and as nmoles of formaldehyde formed per minute per mg of hippocampal tissue, respectively.
(§1) Tempol (4-hydroxy-2,2,6,6-tetramethylpiperidine 1-oxyl), which was administered at a dose of 288 μmol/kg/day [Sigma-Aldrich, St Louis, Mo., USA]), was dissolved in distilled water and delivered via ALZET osmotic mini-pumps (2002, Charles River Laboratories, France). Tempol- or distilled water-filled pumps were implanted subcutaneously on the back of intruder rats under light anesthesia with isofluorane, 11 days after completion of the social-defeat procedure (D11), and were left in place for 15 days.

Assay [3] concerns HPA axis. The assay can be described thus: Activity of the HPA (corticotropic) axis. The note with it: vulnerable animals vs vulnerable animals treated with vehicle. The procedure: as §1
When the rats were killed (at D57), blood from trunk vessels was collected into chilled tubes and corticosterone was quantified by RIA (ICN Biomedicals, Orsay, France), using [125I]corticosterone as a radiotracer (Andre et al., 2005). Adrenal glands were removed, dissected free of adhering fat, and weighed. Organ weights are expressed relative to body weights (mg gland/100 g body weight). Rats were decapitated at midday in a quiet separate room, one by one, with the bench cleaned between rats.

Take `CC1(C)CC(O)CC(C)(C)N1[O]` [TEMPOL, 4-hydroxy-2,2,6,6-tetramethylpiperidin-1-oxyl]: the oxidative stress entry in assay [1] is given as “decreased the oxidative stress in V animals”. Besides, in assay [2], the catalase activity entry was “no effect”. For the same compound, in assay [3], the adrenal gland weight result is listed as “prevented the increase” and the corticosterone levels result is recorded as “prevented the increase of corticosterone levels”.
